Assay results: patent US20020137929A1, “1 - (3-heterocyclylphenyl) isothiourea, -isourea, -guanidine and -amidine herbicidal agents” (Intellectual Property Department, BASF Aktiengesellschaft, priority 1998, published 2002)

Tests used:
ABUTH (Velvetleaf) [1] = test: Postemergence herbicidal evaluation; assay type: in vivo, Abutilon theophrasti; conditions: postemergence
In short: (§1)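 First, seedlings were raised for around two weeks. Next, test material in 50/50 acetone/water containing 0.5% TWEEN 20 was sprayed through a nozzle at 40 psi, equivalent to about 0.0156–0.500 kg/ha. Finally, after 4–5 weeks in the greenhouse, plants were rated 0–9.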

[2] = test system: IPOHE (Morningglory, Ivyleaf); test: Postemergence herbicidal evaluation; assay type: in vivo, Ipomoea hederacea; conditions: postemergence
In short: as §1

SETVI (Foxtail, Green) = test: Postemergence herbicidal evaluation; assay type: in vivo, Setaria viridis; conditions: postemergence
In short: as §1

[3] = test system: GLXMAW (Soybean, Williams); test: Postemergence herbicidal evaluation; assay type: in vivo, Glycine max, (L.) Merr. cv Williams; conditions: postemergence
In short: as §1

ZEAMX (Corn, Field) = test: Postemergence herbicidal evaluation; assay type: in vivo, Zea mays; conditions: postemergence
In short: as §1

ABUTH (Velvetleaf) [4] = test: Preemergence herbicidal evaluation; assay type: in vivo, Abutilon theophrasti; conditions: rated 4-5 weeks after treatment
In short: (§2)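 Seeds were mixed with potting soil and planted on about one inch of soil, then sprayed with test compound in aqueous acetone at about 0.0156 to 0.500 kg per hectare. Plants grew under standard greenhouse care and were visually rated 0-9 against untreated controls 4-5 weeks post-treatment.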

AMBEL (Ragweed, Common) = test: Preemergence herbicidal evaluation; assay type: in vivo, Ambrosia artemisifolia; conditions: rated 4-5 weeks after treatment
In short: as §2

CASOB (Sicklepod) = test: Preemergence herbicidal evaluation; assay type: in vivo, Cassia obtusifolia; conditions: rated 4-5 weeks after treatment
In short: as §2

[5] = test system: IPOHE (Morningglory, Ivyleaf); test: Preemergence herbicidal evaluation; assay type: in vivo, Ipomoea hederacea; conditions: rated 4-5 weeks after treatment
In short: as §2

ECHCG (Barnyardgrass) = test: Preemergence herbicidal evaluation; assay type: in vivo, Echinochloa crus-galli; conditions: rated 4-5 weeks after treatment
In short: as §2

[6] = test system: ECHORC (Watergrass (Calif.)); test: Preemergence weed control under flooded paddy conditions; assay type: in vivo, Echinochloa oryzoides; conditions: rated 3-4 weeks after treatment
In short: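 Silt loam, seeds in top 0.5 cm; flood held 1.5-3 cm; test cpd as acetone/water 50/50 into flood water, ~0.0313-0.500 kg/ha a.i.; greenhouse 3-4 wk; visual 0-9 score vs control.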

CYPSE (Flatsedge) = test: as above; assay type: in vivo, Cyperus serotinus; conditions: rated 3-4 weeks after treatment
In short: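 Seeds or propagules sown in silt loam kept flooded 1.5-3 cm; compounds in 50/50 acetone/water pipetted into flood water at about 0.0313 to 0.500 kg/ha. Greenhouse; visual 0-9 rating versus untreated control 3-4 weeks after treatment.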

[7] = test system: ECHORC (Watergrass (Calif.)); test: Postemergence weed control under flooded paddy conditions; assay type: in vivo, Echinochloa oryzoides; conditions: postemergence weeds, 3-4 weeks after treatment
In short: (§3)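 With weeds 3 to 5 cm tall and rice at the 1.5 to 2.5 leaf stage, containers were flooded and water held 1.5 to 3 cm above soil. Compounds in 50/50 v/v aqueous/acetone went into the flood water at about 0.0313 to 0.500 kg/ha a.i. Effects were visually rated 0–9 against controls after three to four weeks in the greenhouse.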

CYPIR (Rice Flatsedge) = test: as above; assay type: in vivo, Cyperus iria; conditions: postemergence weeds, 3-4 weeks after treatment
In short: as §3

CCOC(=O)CN1C(=O)C(=C2CCCC2)SC1=Nc1cc(-n2c(=O)cc(C(F)(F)F)n(C)c2=O)c(F)cc1Cl [Compound 18, Ethyl 2-{{2-chloro-5-[3,6-dihydro-3-methyl-2,6-dioxo-4-(trifluoromethyl)-1(2H)-pyrimidinyl]-4-fluorophenyl}imino}-5-cyclopentylidene-4-oxo-3-thiazolidineacetate]
ABUTH herbicidal rating (ABUTH (Velvetleaf) [1]; rate 0.0158 kg/ha): 9.0 | ABUTH herbicidal rating (ABUTH (Velvetleaf) [1]; rate 0.0315 kg/ha): 9.0 | ABUTH herbicidal rating (ABUTH (Velvetleaf) [1]; rate 0.0630 kg/ha): 9.0 | IPOHE herbicidal rating ([2]; rate 0.0158 kg/ha): 2.0 | IPOHE herbicidal rating ([2]; rate 0.0315 kg/ha): 6.0 | IPOHE herbicidal rating ([2]; rate 0.0630 kg/ha): 9.0 | SETVI herbicidal rating (SETVI (Foxtail, Green); rate 0.0158 kg/ha): 0.0 | SETVI herbicidal rating (SETVI (Foxtail, Green); rate 0.0315 kg/ha): 1.0 | SETVI herbicidal rating (SETVI (Foxtail, Green); rate 0.0630 kg/ha): 6.0 | GLXMAW herbicidal rating ([3]; rate 0.0158 kg/ha): 3.5 | GLXMAW herbicidal rating ([3]; rate 0.0315 kg/ha): 3.5 | GLXMAW herbicidal rating ([3]; rate 0.0630 kg/ha): 3.5 | ZEAMX herbicidal rating (ZEAMX (Corn, Field); rate 0.0158 kg/ha): 4.0 | ZEAMX herbicidal rating (ZEAMX (Corn, Field); rate 0.0315 kg/ha): 4.5 | ZEAMX herbicidal rating (ZEAMX (Corn, Field); rate 0.0630 kg/ha): 4.0 | ABUTH preemergence herbicidal rating (ABUTH (Velvetleaf) [4]; rate 0.1250 kg/ha): 2.0 | ABUTH preemergence herbicidal rating (ABUTH (Velvetleaf) [4]; rate 0.2500 kg/ha): 9.0 | AMBEL preemergence herbicidal rating (AMBEL (Ragweed, Common); rate 0.1250 kg/ha): 1.0 | AMBEL preemergence herbicidal rating (AMBEL (Ragweed, Common); rate 0.2500 kg/ha): 4.0 | CASOB preemergence herbicidal rating (CASOB (Sicklepod); rate 0.1250 kg/ha): 0.0 | CASOB preemergence herbicidal rating (CASOB (Sicklepod); rate 0.2500 kg/ha): 0.0 | IPOHE preemergence herbicidal rating ([5]; rate 0.1250 kg/ha): 0.0 | IPOHE preemergence herbicidal rating ([5]; rate 0.2500 kg/ha): 1.0 | ECHCG preemergence herbicidal rating (ECHCG (Barnyardgrass); rate 0.1250 kg/ha): 0.0 | ECHCG preemergence herbicidal rating (ECHCG (Barnyardgrass); rate 0.2500 kg/ha): 0.0 | Herbicidal rating ECHORC ([6]; 0.1160 kg/ha): 7.0 | Herbicidal rating ECHORC ([6]; 0.2310 kg/ha): 7.0 | Herbicidal rating ECHORC ([6]; 0.4630 kg/ha): 7.0 | Herbicidal rating CYPSE (CYPSE (Flatsedge); 0.1160 kg/ha): 0.0 | Herbicidal rating CYPSE (CYPSE (Flatsedge); 0.2310 kg/ha): 0.0 | Herbicidal rating CYPSE (CYPSE (Flatsedge); 0.4630 kg/ha): 4.0 | Herbicidal rating ECHORC ([7]; rate 0.1160 kg/ha): 7.0 | Herbicidal rating ECHORC ([7]; rate 0.2310 kg/ha): 7.0 | Herbicidal rating ECHORC ([7]; rate 0.4630 kg/ha): 7.0 | Herbicidal rating CYPIR (CYPIR (Rice Flatsedge); rate 0.1160 kg/ha): 0.0 | Herbicidal rating CYPIR (CYPIR (Rice Flatsedge); rate 0.2310 kg/ha): 0.0 | Herbicidal rating CYPIR (CYPIR (Rice Flatsedge); rate 0.4630 kg/ha): 0.0
